Reference: patent US8501842B2, “Polypropylene resin composition and molded article” (Sumitomo Chemical Company, Limited, priority 2007, dated 2013)

assay: Weight loss by thermogravimetric analysis (TG-DTA); assay type: physicochemical; details: room temperature to 300° C. at 10° C./min, nitrogen gas atmosphere (100 ml/min)
Method: Regarding requirement (c), from the viewpoint of the staining of a mold, the emitted amount of VOC, and the stability against photodegradation, the weight loss measured in a thermogravimetric analysis at a temperature of 300° C. under a nitrogen gas atmosphere preferably is less than 5% by weight, and more preferably is less than 3% by weight. The weight loss measured by the thermogravimetric analysis of a hindered amine light stabilizer (C) is a value determined by using a thermo gravimetry differential thermal analyzer (TG-DTA). Described concretely, it is a weight loss rate determined using a thermobalance when the temperature of a hindered amine light stabilizer (C) is increased from room temperature to 300° C. at a rate of 10° C. per minute under a nitrogen gas atmosphere (in a nitrogen flow at a flow rate of 100 ml/min).
The weight loss by thermogravimetric analysis (TG-DTA) of a hindered amine light stabilizer was measured with a thermo gravimetry differential thermal analyzer from room temperature to 300° C. at a temperature increasing rate of 10° C./min under a nitrogen gas atmosphere (100 ml/min).

| Compound | Weight loss by thermogravimetric analysis (TG-DTA) [% by weight] |
| --- | --- |
| CN1C(C)(C)CC(OC(=O)CC(C(=O)OC2CC(C)(C)N(C)C(C)(C)C2)C(CC(=O)OC2CC(C)(C)N(C)C(C)(C)C2)C(=O)OC2CC(C)(C)N(C)C(C)(C)C2)CC1(C)C (stereo not drawn) [Example C-2, Tetrakis(1,2,2,6,6-pentamethyl-4-piperidyl) 1,2,3,4-butanetetracarboxylate] | 5.8 |
| CC(C)(C)c1ccc(OC(=O)c2cc(C(C)(C)C)c(O)c(C(C)(C)C)c2)c(C(C)(C)C)c1 [Example C-3, 2,4-Di-tert-butylphenyl 3,5-di-tert-butyl-4-hydroxybenzoate] | 31.6 |
| Condensate of N,N-bis(3-aminopropyl)ethylenediamine-2,4-bis[N-butyl-N-(1,2,2,6,6-pentamethyl-4-piperidyl)amino]-6-chloro-1,3,5-triazine [Example C-5] | 0.6 |
